From ChEMBL document CHEMBL1201862, “PubChem BioAssay data set” (2004)
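Growth conditions: 96-well plates. Treatment: test compound, 48 hours, 5 concentrations. Analysis: linear interpolation between bracketing concentrations; unreached endpoints set to highest concentration. Abbreviation: GI50, concentration required for 50% inhibition of growth.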 Activity calls are given as the source filed them. No stated cut-off is given here; in the data, active = GI50 up to about 1.1 µM and inactive = higher.

How the values were obtained:
Experiment in all cases: growth of human tumour cells (NCI), 48 h
CAKI-1 = test system: CAKI-1
SK-MEL-28 = test system: SK-MEL-28
SF-295 = test system: SF-295
TK-10 = test system: TK-10
RXF 393 = test system: RXF 393
SK-MEL-5 = test system: SK-MEL-5
SNB-75 = test system: SNB-75
HOP-92 = test system: HOP-92
DMS-273 = test system: DMS-273
NCI-H23 = test system: NCI-H23
K562 = test system: K562
UACC-257 = test system: UACC-257
MOLT-4 = test system: MOLT-4
M14 = test system: M14
HCT-15 = test system: HCT-15
786-0 = test system: 786-0
LXFL 529 = test system: LXFL 529
U-251 = test system: U-251
OVCAR-8 = test system: OVCAR-8
NCI/ADR-RES = test system: NCI/ADR-RES

SMILES	GI50 (CAKI-1)	GI50 (SK-MEL-28)	GI50 (SF-295)	GI50 (TK-10)	GI50 (RXF 393)	GI50 (SK-MEL-5)	GI50 (SNB-75)	GI50 (HOP-92)	GI50 (DMS-273)	GI50 (NCI-H23)	GI50 (K562)	GI50 (UACC-257)	GI50 (MOLT-4)	GI50 (M14)	GI50 (HCT-15)	GI50 (786-0)	GI50 (LXFL 529)	GI50 (U-251)	GI50 (OVCAR-8)	GI50 (NCI/ADR-RES)
CN(C)NC(=S)NC12CC3CC(CC(C3)C1)C2	> 100 µM (inactive)	> 100 µM (inactive)	> 100 µM (inactive)	> 100 µM (inactive)	> 100 µM (inactive)	> 100 µM (inactive)	> 100 µM (inactive)	91.2 µM (inactive)	> 100 µM (inactive)	> 100 µM (inactive)	> 100 µM (inactive)	> 100 µM (inactive)	> 100 µM (inactive)	> 100 µM (inactive)	> 100 µM	> 100 µM (inactive)	> 100 µM (inactive)	> 100 µM (inactive)	> 100 µM (inactive)	–
CN/N=C(/CCN1CCCC1)CC(c1ccccc1)c1c(O)c2ccccc2oc1=O (stereo not drawn)	> 100 µM (inactive)	> 100 µM (inactive)	> 100 µM (inactive)	> 100 µM (inactive)	> 100 µM (inactive)	> 75.5 µM (inactive)	19.4 µM (inactive)	0.804 µM (active)	> 100 µM (inactive)	> 96.4 µM (inactive)	> 100 µM (inactive)	> 100 µM (inactive)	> 65.3 µM (inactive)	> 100 µM (inactive)	> 100 µM	> 100 µM (inactive)	> 100 µM (inactive)	> 100 µM (inactive)	> 100 µM (inactive)	> 100 µM (inactive)
C=CN1C(=O)OC[C@@H]1c1ccccc1	> 100 µM (inactive)	> 100 µM (inactive)	> 100 µM (inactive)	> 100 µM (inactive)	> 100 µM (inactive)	> 100 µM (inactive)	> 100 µM (inactive)	> 100 µM (inactive)	20 µM (inactive)	> 100 µM (inactive)	> 100 µM (inactive)	> 100 µM (inactive)	> 100 µM (inactive)	> 100 µM (inactive)	16.6 µM	> 100 µM (inactive)	> 100 µM (inactive)	96.6 µM (inactive)	> 100 µM (inactive)	–
NC(=O)c1ncn2c(=O)n(CCCl)nnc12 [MITOZOLOMIDE]	107 µM (inactive)	252 µM (inactive)	37.7 µM (inactive)	229 µM (inactive)	160 µM (inactive)	156 µM (inactive)	50 µM (inactive)	136 µM (inactive)	57.4 µM (inactive)	149 µM (inactive)	94.4 µM (inactive)	159 µM (inactive)	45.2 µM (inactive)	195 µM (inactive)	175 µM	28.8 µM (inactive)	> 100 µM (inactive)	40.4 µM (inactive)	101 µM (inactive)	168 µM (inactive)
